We go through eight molecules from patent US6596863B2, “Medical composition containing nitroetheneamine Derivative or salt there of as active constituent” (Ishihara Sangyo Kaisha, Ltd., priority 1998, dated 2003).

One data set concerns the target T1, human MMP-7 (Homo sapiens, UniProt P09237).
T1 construct: purchased Kabushiki Kaisha Yagai Chuo Kenkyusho YU-31001
T1 sequence (P09237 95-267): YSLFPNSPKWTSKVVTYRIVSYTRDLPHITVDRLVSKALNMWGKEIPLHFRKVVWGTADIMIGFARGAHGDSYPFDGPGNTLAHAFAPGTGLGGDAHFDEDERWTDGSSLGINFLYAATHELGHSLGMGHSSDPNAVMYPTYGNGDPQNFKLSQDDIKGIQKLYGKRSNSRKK
As to the kind of experiment: Enzyme inhibition activity against MMP-7 (matrilysin), fluorescent peptide substrate NFF-2. In kind it is biochemical. Conditions: human MMP-7, substrate NFF-2, 37° C. for 2.5 hours. On the procedure: The inhibition activity against human MMP-7 was measured by the same method as the method for MMP-3, by using a MMP-7 solution (0.025 unit/ml; No. YU-31001, manufactured by Kabushiki Kaisha Yagai Chuo Kenkyusho, purity: at least 99.9%) and a fluorescent peptide substrate MOCAc—Arg-Pro-Lys-Pro-Tyr—Ala-Nva-Trp-Met-Lys(Dnp) -NH2 [NFF-2, No. 3167-v, manufactured by Peptide Institute, Inc.]. The enzymatic reaction was carried out at 37° C. for 2.5 hours in a dark place, and the relative fluorescence intensity was measured at a fluorescence wavelength of 400 nm with an excitation wavelength of 327 nm.

Data set [1] has as its system Colon 26/AD cells (mouse colon cancer). The class given is in vivo. On the procedure:
Colon 26 mouse colon cancer cells (obtained from Cancer Chemotherapy Center Foundation for Cancer Research) were transplanted subcutaneously to BALB/c mouse, 10 days later, the grown tumor was taken out. It was hashed in a Hanks equilibrium salt solution and passed through a metal mesh to obtain single cells, which were cultured in vitro (37° C., 5% CO2) (using 10% fetal bovine serum-containing Dulbecco's Modified Eagle Medium (D-5648, manufactured by Sigma Co.)). […] The same cell strain always produced and secreted MMP-2 in the supernatant of the in vitro culture, but when cultured by an addition of TNF-α (50 ng/ml) in the culture solution, it produced MMP-9 remarkably.
With reference to the method by Tsuruo et al (Japanese Journal of Cancer Research (Gann), Vol. 75, 193-198, 1984), the inhibition effects against experimental lung metastasis were evaluated. Namely, 3×10^4 Colon 26/AD cells (suspended in 0.2 ml of Minimum Essential Medium (manufactured by Nissui Seiyaku K. K.)) cultured in vitro were transplanted through the tail vein of a male BALB/c AnNCrj mouse (purchased from Charles River Japan, Inc.) of 6 weeks old (Day 0). In the case of Compound No. 37, it was suspended in a 1% Tween 80/physiological sodium chloride aqueous solution and intraperitoneally administered (administered in a volume of 10 ml/kg) immediately (within 5 minutes) before transplantation of the cells, 2 hours later and once per day on Day 1-4 and Day 7-11 (a total of 11 times). Further, in the case of Compound No. 157, it was dissolved in 100 mM Tris-HCl (pH 8.5)/150 mM NaCl and forcibly orally administered (administered in a volume of 10 ml/kg) by means of a metal sonde 30 minutes before transplantation of the cells, in the morning and evening of Day 1 and once per day on Day 2-4, Day 7-11 and Day 14 (a total of 12 times). To the vehicle control group, the respective solvents containing no test materials, were administered in the same manner. On Day 14 or Day 15, the lung of each mouse was taken out, and the weight was measured, and the metastatis inhibition rate was calculated in accordance with the following formula. [formula]
A is the weight of lung of the treated group
B is the average weight of lung of the normal group
C is the average weight of lung of the solvent control group.

The target of data set [2] is T2, human MMP-9 (gelatinase B) (Homo sapiens, UniProt P14780).
T2 construct: endogenous in cells; host or cells: HT1080 human fibrosarcoma cells (ATCC CCL-121), PMA-stimulated; enzyme purified from the culture supernatant
T2 sequence (P14780 107-707 limits assumed): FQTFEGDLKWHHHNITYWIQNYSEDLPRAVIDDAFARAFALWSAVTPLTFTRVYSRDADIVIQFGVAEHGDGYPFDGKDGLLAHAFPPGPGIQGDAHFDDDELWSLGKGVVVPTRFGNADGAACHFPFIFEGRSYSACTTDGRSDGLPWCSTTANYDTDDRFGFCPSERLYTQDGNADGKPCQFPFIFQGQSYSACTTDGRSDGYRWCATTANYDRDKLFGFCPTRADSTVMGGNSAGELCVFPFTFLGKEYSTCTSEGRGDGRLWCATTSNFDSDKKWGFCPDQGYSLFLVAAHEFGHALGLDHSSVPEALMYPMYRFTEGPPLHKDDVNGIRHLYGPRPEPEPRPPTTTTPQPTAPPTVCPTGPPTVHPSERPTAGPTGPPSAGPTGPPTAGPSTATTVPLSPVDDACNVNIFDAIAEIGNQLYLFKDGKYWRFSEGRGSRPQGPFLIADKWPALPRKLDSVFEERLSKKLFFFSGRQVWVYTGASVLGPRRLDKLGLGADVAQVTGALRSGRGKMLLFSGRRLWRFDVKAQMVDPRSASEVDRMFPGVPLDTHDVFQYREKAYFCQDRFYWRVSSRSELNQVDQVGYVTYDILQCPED
As to the kind of experiment: Inhibition activity against human MMP-9 (gelatinase B), fluorescent peptide substrate. The class given is biochemical. The gist of the method:
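MMP-9 purified from PMA-stimulated (10 ng/ml) HT1080 supernatant, or commercial enzyme (0.0125-0.025 unit/ml or 0.2 μg/ml final), incubated with compound and 10 μM final Mca-Pro-Leu-Gly-Leu-Dpa-Ala-Arg-NH2 fluorescent substrate at 37 °C for 3 h in the dark. Precursor enzyme activated with APMA.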

The mark [3] stands for this setting: compounds of the formula (I), 1st measurement, read-out: MMP-9 inhibition activities IC50, 1st.
[4] abbreviates: compounds of the formula (I), 2nd measurement, read-out: MMP-9 inhibition activities IC50, 2nd.
[5] abbreviates: compounds of the formula (I), average of 1st and 2nd (or single measurement), read-out: MMP-9 inhibition activities IC50, Average.

Read-outs that look alike come from different tables or passages of the source. Marks after values point to notes of the source that are not given here.

`CNC(=C[N+](=O)[O-])NNc1cc(C(F)(F)F)cc(Cl)n1` [Compound No. 37]: the IC50 against human MMP-7 was determined as 24.5 µM; in data set [2] (setting [3]) it was 4.5 µM; in data set [2] (setting [4]), 7 µM; in data set [2] (setting [5]) it was 5.8 µM. Further, the “Metastatis inhibition ratio (%)” value in data set [1] (30 mg/kg × 11 times, intraperitoneal, Day 14) was determined as 40.2%*. In addition, in data set [1] (30 mg/kg × 11 times, intraperitoneal, Day 14, vehicle control 0.189 ± 0.07), the “Lung weight increase (g) against normal mouse” value stood at 0.113 ± 0.06 g. In addition, the “Weight of lung (g) (Day 14)” value in data set [1] (30 mg/kg × 11 times, intraperitoneal, Day 14, vehicle control 0.402, normal mouse 0.213) is listed as 0.326 g. For the same molecule, the “inhibition ratio of experimental metastasis of Colon 26/AD to lung” value in data set [1] (30 mg/kg, intraperitoneal administration, total of 11 times, male BALB/c mouse, from lung weight) came out at 40.2%.
`CNC(=C[N+](=O)[O-])NNc1cc(C(F)(F)F)cc(OCc2cccnc2)n1` [compound 123]: the melting point is 131 °C (dec.). In data set [2] (setting [3]), the IC50 was determined as 13.9 µM. The IC50 in data set [2] (setting [4]) amounted to 12.4 µM. Also, the IC50 in data set [2] (setting [5]) came to 13.2 µM.
On to `CNC(=C[N+](=O)[O-])NN=Cc1cccc(C(F)(F)F)c1` [compound 167], for which the melting point was found to be 180 °C. In addition, the IC50 in data set [2] (setting [3]) came to 14 µM. For the same molecule, in data set [2] (setting [5]), the IC50 worked out at 14 µM.
With `CNC(=C[N+](=O)[O-])NNc1cc(C(F)(F)F)cc(OCCN(C)C)n1` [Compound No. 100], the melting point was 125 to 126 °C (dec.). For the same molecule, the IC50 in data set [2] (setting [3]) came out at 38.7 µM. In addition, the IC50 in data set [2] (setting [4]) came to 26 µM. In addition, the IC50 in data set [2] (setting [5]) is 32.4 µM.
As for `CNC(=C[N+](=O)[O-])NNc1ccccc1C` [compound 14], the melting point was 171 °C (dec.). The IC50 in data set [2] (setting [3]) was 47.4 µM. The IC50 in data set [2] (setting [4]) was 42.2 µM. Besides, the half-inhibitory concentration (IC50) in data set [2] (setting [5]) was determined as 44.8 µM.
As to `CNC(=C[N+](=O)[O-])NN=Cc1ncc(C(F)(F)F)cc1Cl` [compound 179], the melting point was 171 °C (dec.). Further, the IC50 in data set [2] (setting [3]) was found to be 8.3 µM. Besides, the half-inhibitory concentration (IC50) in data set [2] (setting [5]) came out at 8.3 µM.
Consider `NNC(=C[N+](=O)[O-])NCc1ccncc1` [compound 55], for which the melting point is 176 °C (dec.). In addition, the IC50 in data set [2] (setting [3]) amounted to 25.3 µM. For the same molecule, the IC50 in data set [2] (setting [4]) turned out to be 30 µM. Also, in data set [2] (setting [5]), the IC50 turned out to be 27.7 µM.
The molecule `CSC(=C[N+](=O)[O-])Nc1ccc2c(c1)OCO2` [Intermediate 51] had a melting point of 153 to 155 °C. In addition, the IC50 in data set [2] (intermediates, compounds of the formula (IV), 1st measurement, read-out: MMP-9 inhibition activities IC50, 1st) came out at 31.6 µM. Further, the IC50 in data set [2] (intermediates, compounds of the formula (IV), 2nd measurement, read-out: MMP-9 inhibition activities IC50, 2nd) stood at 26 µM. Moreover, the IC50 in data set [2] (intermediates, compounds of the formula (IV), average of 1st and 2nd (or single measurement), read-out: MMP-9 inhibition activities IC50, Average) was 28.8 µM.
